{
  "source": "ChEMBL document CHEMBL1201862",
  "about": "“PubChem BioAssay data set” (2004)",
  "key": {"[1]": {"test_system": "Streptococcus sp. 'group A'", "assay": "growth inhibition of control SK(-) GAS strain, dose response, counter-screen for streptokinase expression inhibitor project, luminescence, kanamycin, BacTiterGlo, confirmation (AID 1900)", "type": "functional, organism-based"}, "cells [2]": {"assay": "cells", "type": "functional, cell-based"}, "Streptokinase A": {"target": "T1, Streptokinase A (Streptococcus pyogenes serotype M1, UniProt P10520)", "T1 sequence (P10520 whole entry)": "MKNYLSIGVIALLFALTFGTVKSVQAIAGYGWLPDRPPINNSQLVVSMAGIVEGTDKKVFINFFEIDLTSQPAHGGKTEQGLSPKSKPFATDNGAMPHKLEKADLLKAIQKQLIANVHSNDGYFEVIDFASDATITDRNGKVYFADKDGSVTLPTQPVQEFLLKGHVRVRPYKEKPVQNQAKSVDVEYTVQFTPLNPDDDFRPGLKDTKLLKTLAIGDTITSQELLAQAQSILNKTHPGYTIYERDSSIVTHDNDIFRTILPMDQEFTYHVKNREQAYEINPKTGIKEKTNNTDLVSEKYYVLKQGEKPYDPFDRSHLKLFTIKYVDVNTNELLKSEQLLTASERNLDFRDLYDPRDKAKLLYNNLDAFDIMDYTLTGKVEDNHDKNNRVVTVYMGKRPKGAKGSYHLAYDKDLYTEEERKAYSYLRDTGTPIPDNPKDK", "assay": "S. pyogenes streptokinase expression inhibitors, potency, dose response, plasminogen activation absorbance, OD405 (AID 1914);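 note: secreted streptokinase activity via plasminogen activation per viability signal from cell pellet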", "type": "functional, Streptococcus pyogenes M1 GAS"}, "[3]": {"assay": "Luminescence-based counterscreen assay for KLF5 inhibitors: dose response cell-based high throughput screening assay to identify cytotoxic compounds using the IEC-6 intestinal epithelial cell line. [Related pubchem assays: 1700 (Primary screen.), 1834 (Confirmation screen.), 1858 (Summary AID.), 1905 (Counterscreen.)]", "type": "functional"}, "[4]": {"assay": "inhibitors of intracellular T. cruzi replication, confirmation, NIH3T3 host cells, beta-gal luminescence (AID 2044);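 note: luminescent beta-galactosidase reporter signal from transgenic T. cruzi replicating inside host cells; inhibitors lower the luminescence signal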", "type": "functional, cell-based"}, "cells [5]": {"assay": "cells", "type": "functional, cell-based", "remark": "listed apart in the source"}, "[6]": {"assay": "cytotoxicity toward NIH3T3 fibroblasts, dose response, counter-screen, cell-based, ATP luminescence, mouse fibroblasts (AID 2010);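 note: cells exposed to compound for about 90 hours before reading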", "type": "functional"}, "Streptococcus": {"test_system": "Streptococcus", "assay": "Group A Streptococcus viability loss, dose response, counter-screen for streptokinase expression inhibitor project, luminescence, BacTiterGlo (AID 1915);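 note: potency for reduction of bacterial viability or growth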", "type": "functional, organism-based"}, "HEK293 [7]": {"test_system": "HEK293", "assay": "inhibitors of LMP1-driven NF-kB reporter, dose response, cell-based, HEK293, luciferase, cherry-pick (AID 588343)", "type": "functional", "details": "Homo sapiens"}, "INS1": {"test_system": "INS1", "assay": "beta cell apoptosis inhibitors, cytokine rescue, dose response, luminescence, retest (AID 449756);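 note: cell death triggered by IL-1 beta plus TNF-alpha plus IFN-gamma mixture; protective hits raise ATP signal compared with cytokine alone wells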", "type": "functional, cell-based", "details": "Rattus norvegicus"}, "HEK293 [8]": {"test_system": "HEK293", "assay": "NOD1 signaling inhibitors, primary screen, cell-based, luminescence, uHTS (AID 1578)", "type": "functional", "details": "Homo sapiens"}, "HEK293 [9]": {"test_system": "HEK293", "assay": "cells", "type": "functional, cell-based", "details": "Homo sapiens"}, "HEK293 [10]": {"test_system": "HEK293", "assay": "cells", "type": "functional, cell-based", "details": "Homo sapiens", "remark": "listed apart in the source"}, "[11]": {"target": "Nucleotide-binding oligomerization domain-containing protein 2 (Homo sapiens, UniProt Q9HC29)", "sequence (Q9HC29 whole entry, the tested form may be a part)": "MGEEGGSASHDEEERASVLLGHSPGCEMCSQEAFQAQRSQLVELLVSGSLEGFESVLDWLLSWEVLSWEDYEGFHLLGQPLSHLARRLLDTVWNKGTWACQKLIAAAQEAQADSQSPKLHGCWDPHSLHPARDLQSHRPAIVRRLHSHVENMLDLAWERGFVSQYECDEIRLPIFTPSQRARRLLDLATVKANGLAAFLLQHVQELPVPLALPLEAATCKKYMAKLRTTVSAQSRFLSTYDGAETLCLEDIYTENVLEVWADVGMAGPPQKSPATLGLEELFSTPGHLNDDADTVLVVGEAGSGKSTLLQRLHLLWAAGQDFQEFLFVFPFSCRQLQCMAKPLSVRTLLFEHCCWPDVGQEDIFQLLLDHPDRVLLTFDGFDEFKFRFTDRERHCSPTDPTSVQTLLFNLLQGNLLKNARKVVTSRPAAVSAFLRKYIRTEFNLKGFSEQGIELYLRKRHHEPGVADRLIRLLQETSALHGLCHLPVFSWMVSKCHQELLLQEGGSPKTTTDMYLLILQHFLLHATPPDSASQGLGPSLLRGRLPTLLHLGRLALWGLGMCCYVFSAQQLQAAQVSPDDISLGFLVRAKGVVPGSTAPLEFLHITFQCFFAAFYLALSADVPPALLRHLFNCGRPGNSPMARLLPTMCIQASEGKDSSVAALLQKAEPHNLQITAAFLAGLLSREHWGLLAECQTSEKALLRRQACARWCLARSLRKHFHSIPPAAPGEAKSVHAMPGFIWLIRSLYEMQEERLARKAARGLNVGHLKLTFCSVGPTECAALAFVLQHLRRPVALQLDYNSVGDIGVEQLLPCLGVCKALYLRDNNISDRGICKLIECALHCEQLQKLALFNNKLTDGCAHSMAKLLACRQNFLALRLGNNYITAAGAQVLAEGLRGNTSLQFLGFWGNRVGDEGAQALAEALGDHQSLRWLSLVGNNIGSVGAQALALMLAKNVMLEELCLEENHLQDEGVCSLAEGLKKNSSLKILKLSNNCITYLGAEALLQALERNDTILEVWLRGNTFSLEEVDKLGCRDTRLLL", "assay": "NOD2 signaling inhibitors, cell-based, luminescence, uHTS, HEK293 (AID 1566)", "type": "functional"}, "HEK293 [12]": {"test_system": "HEK293", "assay": "NOD2 signaling inhibitors in MDP-stimulated cells, cell-based, uHTS, luminescence (AID 2001)", "type": "functional", "details": "Homo sapiens"}, "HEK293 [13]": {"test_system": "HEK293", "assay": "cells", "type": "functional, cell-based", "details": "Homo sapiens", "remark": "listed apart in the source"}, "[14]": {"assay": "A cytotoxicity screen of small molecule inhibitors of the PhoP region in Salmonella typhi identified in the primary screen. [Related pubchem assays: 1850, 1864, 1985 ]", "type": "functional"}, "HEK293 [15]": {"test_system": "HEK293", "assay": "Fluorescence-based counterscreen for potentiators or agonists of NPY-Y2: cell-based high-throughput dose response assay to identify inhibitors of cyclic nucleotide gated ion channel (CNGC) activity. In this assay, the parental HEK293 cell line transfected with a cyclic-nucleotide gated ion channel (CNGC)-based cAMP sensor is used to measure inhibition of isoproterenol-induced CNGC activity by test compound.", "type": "functional", "details": "Homo sapiens"}, "[16]": {"target": "Neuropeptide Y receptor type 2 (Homo sapiens, UniProt P49146)", "sequence (P49146 whole entry)": "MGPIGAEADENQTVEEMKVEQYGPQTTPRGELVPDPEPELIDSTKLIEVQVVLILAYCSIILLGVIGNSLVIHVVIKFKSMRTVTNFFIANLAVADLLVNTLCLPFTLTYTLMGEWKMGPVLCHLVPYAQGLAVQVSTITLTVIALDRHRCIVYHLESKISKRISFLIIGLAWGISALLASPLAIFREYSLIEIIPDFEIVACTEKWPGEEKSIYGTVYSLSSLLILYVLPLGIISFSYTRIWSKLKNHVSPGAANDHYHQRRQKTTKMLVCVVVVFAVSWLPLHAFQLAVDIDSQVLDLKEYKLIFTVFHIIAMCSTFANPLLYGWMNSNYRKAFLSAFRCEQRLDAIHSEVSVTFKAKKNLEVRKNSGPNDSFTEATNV", "assay": "Fluorescence-based cell-based high-throughput dose response assay for agonists of NPY-Y2. [Related pubchem assays: 1703 (Screening assay (CNGC inhibitors).), 1359 (Screening assay (NPY-Y2 potentiators or agonists).), 1304 (Screening assay (NPY-Y1 potentiators or agonists).), 1710 (Screening assay (NPY-Y2 agonists).), 1791 (Summary AID.)]", "type": "functional"}, "[17]": {"target": "Neuropeptide Y receptor type 1 (Homo sapiens, UniProt P25929)", "sequence (P25929 whole entry)": "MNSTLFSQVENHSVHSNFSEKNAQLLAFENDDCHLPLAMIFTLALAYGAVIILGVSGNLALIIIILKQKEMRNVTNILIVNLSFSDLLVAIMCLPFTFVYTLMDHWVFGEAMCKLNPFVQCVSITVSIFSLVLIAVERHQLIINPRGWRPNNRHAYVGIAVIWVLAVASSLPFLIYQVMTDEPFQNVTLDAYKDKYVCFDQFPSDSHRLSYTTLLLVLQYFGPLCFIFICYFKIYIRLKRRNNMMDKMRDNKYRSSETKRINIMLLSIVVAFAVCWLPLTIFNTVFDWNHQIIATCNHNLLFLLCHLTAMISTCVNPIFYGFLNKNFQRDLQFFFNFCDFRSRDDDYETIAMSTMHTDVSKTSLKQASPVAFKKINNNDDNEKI", "assay": "Fluorescence-based counterscreen for agonists of NPY-Y2: cell-based high-throughput dose response assay for agonists of NPY-Y1.", "type": "functional"}},
  "note": "Active and inactive are the calls of the source.",
  "data": [
    {"compound": "Cc1ccc2[nH]c(C(=O)N/N=C/c3ccccc3O)c(C)c2c1", "values": [
      {"measurement": "EC50", "setting": "[1]", "value": "1.63 µM (active)"},
      {"measurement": "EC50", "setting": "cells [2]", "value": "6.86 µM (active)"},
      {"measurement": "EC50", "setting": "Streptokinase A", "value": "> 150 µM (not active)"},
      {"measurement": "IC50", "setting": "[3]", "value": "3.15 µM (active)"},
      {"measurement": "EC50", "setting": "[4]", "value": "0.564 µM (active)"},
      {"measurement": "EC50", "setting": "cells [5]", "value": "> 350 µM (not active)"},
      {"measurement": "EC50", "setting": "[6]", "value": "6.55 µM (active)"},
      {"measurement": "EC50", "setting": "Streptococcus", "value": "3.86 µM (active)"},
      {"measurement": "AC50", "setting": "HEK293 [7]", "value": "7.07 µM (active)"},
      {"measurement": "AC50", "setting": "INS1", "value": "0.507 µM (active)"}
    ]},
    {"compound": "Cc1cc(/C=N/Nc2nc(N)ncc2[N+](=O)[O-])c(C)n1-c1ccccc1F", "values": [
      {"measurement": "EC50", "setting": "HEK293 [8]", "value": "4.64 µM (active)"},
      {"measurement": "IC50", "setting": "HEK293 [9]", "value": "1.77 µM (active)"},
      {"measurement": "IC50", "setting": "HEK293 [10]", "value": "> 20 µM (inactive)"},
      {"measurement": "IC50", "setting": "[3]", "value": "> 39.8 µM (not active)"},
      {"measurement": "EC50", "setting": "[11]", "value": "< 0.31 µM (inactive)"},
      {"measurement": "IC50", "setting": "HEK293 [12]", "value": "6.02 µM (active)"},
      {"measurement": "IC50", "setting": "HEK293 [13]", "value": "> 20 µM (inactive)"}
    ]},
    {"compound": "CCc1nc(C)ccc1OCC(=O)N(CC)CC", "values": [
      {"measurement": "EC50", "setting": "[14]", "value": "> 50 µM (active)"}
    ]},
    {"compound": "Clc1ccc(Nc2nc(C3CC3)cs2)cc1", "values": [
      {"measurement": "EC50", "setting": "[14]", "value": "> 50 µM (active)"}
    ]},
    {"compound": "CC(C)c1nnc(NC(=O)CCC(=O)Nc2ccc3c[nH]nc3c2)s1", "values": [
      {"measurement": "EC50", "setting": "HEK293 [15]", "value": "> 35.4 µM (not active)"},
      {"measurement": "EC50", "setting": "[16]", "value": "> 35.4 µM (not active)"},
      {"measurement": "EC50", "setting": "[17]", "value": "> 35.4 µM (not active)"}
    ]}
  ]
}
